Assay results from PubChem BioAssay AID256 (DTP/NCI, 2004).
“And” between values parts separate entries of the source, which are not always exact repeats. Equal values may be shown once. Toxic doses and inconclusive results are not listed. How the source made its calls: active means survival T/C of 150% or more; inactive means T/C below 125% in these data. Non-standard residues stand in square brackets, D forms with d. Residues, ends and D or L forms follow the SMILES beside them. *: point of attachment. Cbz = O=C(OCc1ccccc1)*; Abu = CC[CH](N)C(=O)O

System: CD2F1 mice, L1210 leukemia ip, survival T/C
Assay: NCI In Vivo Anticancer Drug Screen. Data for tumor model L1210 Leukemia (intraperitoneal) in CD2F1 (CDF1) mice
Details: endpoint: mean survival time, higher = longer survival
Summary of the method: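 Transplantable tumor in mice; compound-treated vs vehicle-treated groups. Read-out = treated/control ratio of the measured endpoint.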

[1] = dose: 100.0 mg/kg/injection, schedule: Q04DX003 (ip), vehicle: saline with Tween-80
[2] = dose: 200.0 mg/kg/injection, schedule: Q04DX003 (ip), vehicle: saline with Tween-80
[3] = dose: 400.0 mg/kg/injection, schedule: Q04DX003 (ip), vehicle: saline with Tween-80
[4] = dose: 50.0 mg/kg/injection, schedule: Q01DX009 (ip), vehicle: saline with Tween-80
[5] = dose: 100.0 mg/kg/injection, schedule: Q01DX009 (ip), vehicle: saline with Tween-80
[6] = dose: 200.0 mg/kg/injection, schedule: Q01DX009 (ip), vehicle: saline with Tween-80
[7] = dose: 100.0 mg/kg/injection, schedule: Q01DX001 (ip), vehicle: saline with Tween-80
[8] = dose: 200.0 mg/kg/injection, schedule: Q01DX001 (ip), vehicle: saline with Tween-80
[9] = dose: 400.0 mg/kg/injection, schedule: Q01DX001 (ip), vehicle: saline with Tween-80

Measured: T/C

CC(C)c1ccc(C(=O)C(O)c2ccc(C(C)C)cc2)cc1 (centres undefined)
inactive: [1] 102 % of control | [2] 102 % of control | [3] 95 % of control

O=c1cc(O)cn[nH]1
inactive: dose: 25.0 mg/kg/injection, schedule: Q01DX009 (ip), vehicle: other 97 % of control | dose: 50.0 mg/kg/injection, schedule: Q01DX009 (ip), vehicle: other 97 % of control | dose: 100.0 mg/kg/injection, schedule: Q01DX009 (ip), vehicle: other 104 % of control | dose: 200.0 mg/kg/injection, schedule: Q01DX009 (ip), vehicle: other 102 % of control | dose: 400.0 mg/kg/injection, schedule: Q01DX009 (ip), vehicle: other 102 % of control

N#C/C(=C\c1ccc(-c2ccccc2)cc1)c1ccccc1
inactive: [2] 86 % of control | [3] 95 % of control

O=Cc1ccc([N+](=O)[O-])s1
inactive: dose: 3.12 mg/kg/injection, schedule: Q01DX009 (ip), vehicle: saline with Tween-80 102 % of control and 108 % of control | dose: 6.25 mg/kg/injection, schedule: Q01DX009 (ip), vehicle: saline with Tween-80 96 % of control and 102 % of control | dose: 12.5 mg/kg/injection, schedule: Q01DX009 (ip), vehicle: saline with Tween-80 97 % of control and 98 % of control | dose: 25.0 mg/kg/injection, schedule: Q01DX009 (ip), vehicle: saline with Tween-80 104 % of control and 105 % of control | [4] 103 % of control and 107 % of control | [5] 109 % of control

COc1ccc(NC(=O)Oc2cc(C)c(Cl)cc2C(C)C)c(Cl)c1
inactive: dose: 50.0 mg/kg/injection, schedule: Q01DX009 (ip), vehicle: Klucel (hydroxypropylcellulose) (HPC) 100 % of control | dose: 100.0 mg/kg/injection, schedule: Q01DX009 (ip), vehicle: Klucel (hydroxypropylcellulose) (HPC) 96 % of control | dose: 100.0 mg/kg/injection, schedule: Q04DX003 (ip), vehicle: Klucel (hydroxypropylcellulose) (HPC) 98 % of control | dose: 200.0 mg/kg/injection, schedule: Q01DX009 (ip), vehicle: Klucel (hydroxypropylcellulose) (HPC) 96 % of control | dose: 200.0 mg/kg/injection, schedule: Q04DX003 (ip), vehicle: Klucel (hydroxypropylcellulose) (HPC) 98 % of control | dose: 400.0 mg/kg/injection, schedule: Q04DX003 (ip), vehicle: Klucel (hydroxypropylcellulose) (HPC) 100 % of control

CCC[CH2][Sn]([Cl])([CH2]Cl)[CH2]CCC
inactive: dose: 2.5 mg/kg/injection, schedule: Q04DX003 (ip), vehicle: saline 98 % of control | dose: 5.0 mg/kg/injection, schedule: Q04DX003 (ip), vehicle: saline 97 % of control

CCCCCCCCCCCCCCCCCCC#N
inactive: [5] 100 % of control | [1] 92 % of control | [6] 96 % of control | [2] 98 % of control | dose: 400.0 mg/kg/injection, schedule: Q01DX009 (ip), vehicle: saline with Tween-80 93 % of control | [3] 95 % of control

CCC(NC(=O)OCc1ccccc1)C(=O)N1CCCC1C(=O)OC (centres undefined) (Cbz-[Abu]-Pro-OMe; configuration not given here)
inactive: [7] 103 % of control | [8] 104 % of control | [9] 103 % of control

O=C1OCCC1=P(c1ccccc1)(c1ccccc1)c1ccccc1
inactive: [4] 100 % of control | [5] 96 % of control | [6] 96 % of control

ClC1(Cl)C2COCOCC21 (centres undefined)
inactive: [7] 91 % of control | [8] 91 % of control | [9] 95 % of control

CCC(C)OC(=O)Nc1cccc(OC(=O)N(C)C)c1 (centres undefined)
inactive: [1] 97 % of control | [2] 97 % of control | [3] 100 % of control

CC(C)C([N+](C)(C)C)P(=O)([O-])O (centres undefined)
inactive: dose: 100.0 mg/kg/injection, schedule: Q04DX003 (ip), vehicle: saline 101 % of control | dose: 200.0 mg/kg/injection, schedule: Q04DX003 (ip), vehicle: saline 96 % of control | dose: 400.0 mg/kg/injection, schedule: Q04DX003 (ip), vehicle: saline 101 % of control

CN(/N=N/c1nc[nH]c1C(N)=O)C1CCCCC1
inactive: dose: 7.8 mg/kg/injection, schedule: Q01DX009 (ip), vehicle: Klucel (hydroxypropylcellulose) (HPC) 105 % of control | dose: 31.2 mg/kg/injection, schedule: Q01DX009 (ip), vehicle: Klucel (hydroxypropylcellulose) (HPC) 124 % of control | dose: 125.0 mg/kg/injection, schedule: Q01DX009 (ip), vehicle: Klucel (hydroxypropylcellulose) (HPC) 122 % of control | dose: 250.0 mg/kg/injection, schedule: Q01DX009 (ip), vehicle: Klucel (hydroxypropylcellulose) (HPC) 70 % of control
